Data set [1] concerns the target T1, Human recombinant enteropeptidase (Homo sapiens, UniProt P98073).
T1 construct: purchased BIO Vision Inc. 7529-50
Description: Human enteropeptidase inhibition test. In kind it is biochemical. The following applies: 20 minutes after reaction start, read-out: Inhibition rate (enteropeptidase); for inhibition at 0.01 µM: compound concentration 10 nM; for inhibition at 0.1 µM: compound concentration 100 nM; for inhibition at 0.001 µM: compound concentration 1 nM. The method, then:
(Test Example 1): Human Enteropeptidase Inhibition Test
Human recombinant enteropeptidase (manufactured by BIO Vision Inc., catalog no.: 7529-50) was diluted with an assay buffer (50 mM tricine (pH8.0), 0.01 W/V % Tween 20, 10 mM CaCl2) to prepare an […] enzyme solution. Then, 5FAM-Abu-Gly-Asp-Asp-Lys-Ile-Val-Gly-Gly-Lys (CPQ2)-Lys-Lys-NH2 (manufactured by CHINESE PEPTIDE COMPANY, purity: 94.5) was diluted with the assay buffer to prepare a 1.5 μM substrate solution. Each test compound was dissolved into DMSO, then diluted with the assay buffer 100 times, and further appropriately diluted with an assay buffer comprising 1% DMSO to prepare each compound solution. 10 μL of the compound solution, 15 μL of the assay buffer, and 50 μL of the substrate solution were added to a 96 well black plate (manufactured by Thermo Fisher Scientific Inc., code no.: 9502867), mixed, then 25 μL of the enzyme solution was added thereto, and mixed to start the reaction. Fluorescence intensities at excitation wavelength 485 nm and fluorescence wavelength 535 nm were measured by using a fluorescence plate reader (Flex station 3) (Test compound addition group). Also, the same reaction as described above except for not adding each test compound was carried out (Test compound non-addition group). Additionally, the same reaction as described above except for not adding each test compound and the enzyme was carried out (Control group). Inhibition rate was calculated by the following equation using fluorescence intensity after 20 minutes of reaction start. Inhibition rate (%)=(1−(fluorescence intensity of Test compound addition group−fluorescence intensity of Control group)÷(fluorescence intensity of Test compound non-addition group−fluorescence intensity of Control group))×100

A further data set deals with DIO mouse. Description: Anti-obesity effect test using DIO mouse. Type of data set: in vivo. To be noted: 336 h, DIO mice, vs vehicle group, read-out: Weight loss rate; for inhibition in vivo at 50 mg/kg: oral 50 mg/kg once daily for 2 weeks. As to the method: (Test Example 4): Anti-Obesity Effect Test Using DIO Mouse
Diet-induced obesity (DIO) mice (D-12492 diet, male, C57BL-DIO, 26 to 28-week old) were orally administered with a 0.5 W/V % methylcellulose suspension comprising each test compound (Compound administration group, 5 or 6 mice/group) or a 0.5 W/V % methylcellulose suspension (Compound non-administration group (Vehicle group), 6 mice/group) once daily for 2 weeks. Weight loss rate was calculated by the following equation. Weight loss rate (%) of each Compound administration group−(1−average weight at the last day of the test of each Compound administration group/average weight at the last day of the test of Vehicle group)×100

Data set [2] concerns the target T2, Human recombinant trypsin (Homo sapiens, UniProt P07477).
T2 construct: purchased Wako Pure Chemical Industries, Ltd. 206-17171
Description: Human trypsin inhibition test. Type of data set: biochemical. To be noted: 20 minutes after reaction start, read-out: Inhibition rate (trypsin); for inhibition at 0.001 µM: compound concentration 1 nM; for inhibition at 0.01 µM: compound concentration 10 nM; for inhibition at 0.1 µM: compound concentration 100 nM. As to the method:
(Test Example 2): Human Trypsin Inhibition Test
Human recombinant trypsin (manufactured by Wako Pure Chemical Industries, Ltd., code no.: 206-17171) was diluted with an assay buffer (0.1 M Tris-HCl (pH8.0), 0.15 M NaCl, 10 mM CaCl2, 0.05% Brij35) to prepare a 10 ng/mL enzyme solution. Then, Boc-Phe-Ser-Arg-MCA (manufactured by PEPTIDE INSTITUTE, INC., code no.: 3107-v) was diluted with the assay buffer to prepare a 40 μM substrate solution. Each test compound was dissolved into DMSO, then diluted with the assay buffer 100 times, and further appropriately diluted with an assay buffer comprising 1% DMSO to prepare each compound solution. 10 μL of the compound solution, 15 μL of the assay buffer, and 50 μL of the substrate solution were added to a 96 well black plate (manufactured by Thermo Fisher Scientific Inc., code no.: 9502867), mixed, and then 25 μL of the enzyme solution was added thereto, and mixed to start the reaction. Fluorescence intensities at excitation wavelength 355 nm and fluorescence wavelength of 460 nm were measured by using a fluorescence plate reader (Flex station 3) (Test compound addition group). Also, the same reaction as described above except for not adding each test compound was carried out (Test compound non-addition group). Additionally, the same reaction as described above except for not adding each test compound and the enzyme was carried out (Control group). Inhibition rate was calculated by the following equation using fluorescence intensity after 20 minutes of reaction start. Inhibition rate (%)=(1−(fluorescence intensity of Test compound addition group−fluorescence intensity of Control group)[…](fluorescence intensity of Test compound non-addition group−fluorescence intensity of Control group))×100

Data set [3] can be described thus: Rat pharmacokinetic (PK) test (plasma concentration after oral administration). The following applies: male, SD, 10 mg/kg.
Description: Each test compound was suspended in a 0.5 W/V % methylcellulose 400 solution to prepare a suspension, and the resulting suspension was orally administered to a male SD rat of 7 to 8-week old (weight: 180 to 250 g). After 0.25, 0.5, 1, 2, 4, 8, and 24 hour(s) of the administration of each test compound, blood (EDTA-added blood) was collected from jugular vein under isoflurane inhalation anesthesia. […] To the resulting blood plasma was added acetonitrile, a mixed solvent of acetonitrile and water (1:1 (V/V)), or a mixed solvent of acetonitrile and 0.1 M hydrochloric acid (1:1 (V/V)), then the resulting mixture was mixed at 750 rpm for 3 minutes in a shaker, and subjected to centrifugal separation at 3700 rpm for 2 minutes in a centrifuge to remove proteins. The resulting sample was subjected to LC (liquid chromatography)/MS (mass spectrometry) measurement under the following measurement conditions.
Each compound concentration in blood plasma at each time of blood collection was calculated according to the internal standard method, and, area under the plasma concentration vs. time curve (AUCall (Area Under Curve)) was calculated according to the trapezoidal method.
The LC and MS systems used in the present test are as follows.
LC: LC20 or LC30 HPLC system manufactured by Shimadzu Corporation
Column: Phenomenex Kinetex C18 (50×2.1 mm, 2.6 μm)
Column temperature: 40° C.
Mobile phase A: aqueous solution with 0.1% formic acid, Mobile phase B: 50% acetonitrile/methanol solution with 0.1% formic acid

Experimental findings from patent publication US11465965B2, “Double-headed protease inhibitor” (UBE INDUSTRIES, LTD., priority 2017, dated 2022) are described below.

Structures are written as SMILES. Counter-ions that a name gives are not always drawn.

T1 sequence (P98073 whole entry): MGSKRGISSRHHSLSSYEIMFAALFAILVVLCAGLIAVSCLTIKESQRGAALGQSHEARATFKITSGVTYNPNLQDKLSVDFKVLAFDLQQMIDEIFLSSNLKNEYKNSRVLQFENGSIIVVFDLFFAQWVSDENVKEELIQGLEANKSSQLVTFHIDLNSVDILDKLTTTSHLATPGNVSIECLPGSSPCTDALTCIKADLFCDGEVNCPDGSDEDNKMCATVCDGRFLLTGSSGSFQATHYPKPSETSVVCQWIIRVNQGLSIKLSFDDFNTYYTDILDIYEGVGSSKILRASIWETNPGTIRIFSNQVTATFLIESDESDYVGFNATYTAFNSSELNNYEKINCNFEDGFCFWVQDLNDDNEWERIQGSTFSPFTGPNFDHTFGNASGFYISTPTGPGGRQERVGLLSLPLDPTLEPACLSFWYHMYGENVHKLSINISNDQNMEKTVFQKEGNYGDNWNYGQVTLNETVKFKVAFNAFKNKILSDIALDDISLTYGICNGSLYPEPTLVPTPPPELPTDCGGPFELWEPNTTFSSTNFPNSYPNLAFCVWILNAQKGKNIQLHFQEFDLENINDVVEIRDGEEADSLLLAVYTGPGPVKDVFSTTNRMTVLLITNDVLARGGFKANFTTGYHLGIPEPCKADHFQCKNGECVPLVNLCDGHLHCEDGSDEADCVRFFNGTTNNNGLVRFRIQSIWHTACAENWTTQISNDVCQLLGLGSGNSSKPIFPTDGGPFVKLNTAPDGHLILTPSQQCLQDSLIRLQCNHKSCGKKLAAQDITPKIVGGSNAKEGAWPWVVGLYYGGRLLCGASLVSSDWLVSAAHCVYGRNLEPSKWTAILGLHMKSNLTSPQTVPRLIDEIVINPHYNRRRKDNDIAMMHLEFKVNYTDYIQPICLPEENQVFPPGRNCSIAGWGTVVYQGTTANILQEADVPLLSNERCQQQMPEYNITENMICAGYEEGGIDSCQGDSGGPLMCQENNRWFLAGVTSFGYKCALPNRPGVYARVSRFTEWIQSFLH

As usually defined, the inhibition is the share of the control response that was lost under treatment. Turning to `N=C(N)Nc1ccc(C(=O)Oc2ccc(CN(CCOCCOCCN(Cc3ccc(OC(=O)c4ccc(NC(=N)N)cc4)cc3)S(=O)(=O)N[C@@H](CC(=O)O)C(=O)O)S(=O)(=O)N[C@@H](CC(=O)O)C(=O)O)cc2)cc1` [24-(a)], in data set [1], the inhibition at 0.01 µM is at least 50% and the inhibition at 0.1 µM was at least 50%. The inhibition in vivo at 50 mg/kg in the data set with DIO mouse is at least 4%. In addition, in data set [2], the inhibition at 0.001 µM is at least 50%, the inhibition at 0.01 µM is at least 50% and the inhibition at 0.1 µM is at least 50%.

On to `N=C(N)Nc1ccc(C(=O)Oc2ccc(CNS(=O)(=O)N[C@@H](CC(=O)O)C(=O)O)cc2)cc1` [Reference Example 55-(b), (S)-2-((N-(4-((4-guanidinobenzoyl)oxy)benzyl)sulfamoyl)amino)succinic acid], for which the inhibition at 0.1 µM in data set [1] and in data set [2] was at least 50% each time.

With `N=C(N)Nc1ccc(C(=O)Oc2cccc(CNS(=O)(=O)N(CCOCCOCCN([C@@H](CC(=O)O)C(=O)O)S(=O)(=O)NCc3cccc(OC(=O)c4ccc(NC(=N)N)cc4)c3)[C@@H](CC(=O)O)C(=O)O)c2)cc1` [25-(b), (2S,13S)-3,12-bis(N-(3-((4-guanidinobenzoyl)oxy)benzyl)sulfamoyl)-6,9-dioxa-3,12-diazatetradecane-1,2,13,14-tetracarboxylic acid], in data set [1], the inhibition at 0.001 µM is at least 50%, the inhibition at 0.01 µM is at least 50% and the inhibition at 0.1 µM is at least 50%. Further, in the data set on DIO mouse, the inhibition in vivo at 50 mg/kg is at least 4%. In data set [2], the inhibition at 0.01 µM is at least 50% and the inhibition at 0.1 µM was at least 50%.

Take `CN(Cc1ccc(OC(=O)c2ccc(NC(=N)N)cc2)cc1)S(=O)(=O)N(CCOCCOCCN([C@@H](CC(=O)O)C(=O)O)S(=O)(=O)N(C)Cc1ccc(OC(=O)c2ccc(NC(=N)N)cc2)cc1)[C@@H](CC(=O)O)C(=O)O` [22-(a), (2S,13S)-3,12-bis(N-(4-((4-guanidinobenzoyl)oxy)benzyl)-N-methylsulfamoyl)-6,9-dioxa-3,12-diazatetradecane-1,2,13,14-tetracarboxylic acid trifluoroacetate]: in data set [1], the inhibition at 0.001 µM is at least 50% and the inhibition at 0.01 µM was at least 50%. In data set [2], the inhibition at 0.001 µM was at least 50%, the inhibition at 0.01 µM is at least 50% and the inhibition at 0.1 µM was at least 50%.

With `N=C(N)Nc1ccc(C(=O)Oc2ccc(COC(=O)NC(CC(=O)O)C(=O)N[C@@H](CC(=O)O)C(=O)O)cc2)cc1` (stereo partly drawn) [Reference Example 41-(b), (2S)-2-(3-carboxy-2-((((4-((4-guanidinobenzoyl)oxy)benzyl)oxy)carbonyl)amino)propaneamine)succinic acid trifluoroacetate], the inhibition at 0.1 µM in data set [1] and in data set [2] was at least 50% each time.

Take `N=C(N)Nc1ccc(C(=O)Oc2cccc(CNS(=O)(=O)N[C@@H](CC(=O)O)C(=O)O)c2)cc1` [Reference Example 73-(b), (S)-2-((N-(3-((4-guanidinobenzoyl)oxy)benzyl)sulfamoyl)amino)succinic acid trifluoroacetate]: the inhibition at 0.1 µM in data set [1] and in data set [2] was at least 50% throughout.

For the compound `N=C(N)Nc1ccc(C(=O)Oc2ccc(CNS(=O)(=O)N(Cc3cccc(C(=O)O)c3)[C@@H](CC(=O)O)C(=O)O)cc2)cc1` [Reference Example 52-(b), (S)-2-((3-carboxybenzyl)(N-(4-((4-guanidinobenzoyl)oxy)benzyl)sulfamoyl)amino)succinic acid trifluoroacetate], the inhibition at 0.1 µM in data set [1] and in data set [2] was at least 50% throughout.

Turning to `N=C(N)Nc1ccc(C(=O)Oc2ccc(CNS(=O)(=O)N(CCOCCOCCN(C(CC(=O)O)CC(=O)O)S(=O)(=O)NCc3ccc(OC(=O)c4ccc(NC(=N)N)cc4)cc3)C(CC(=O)O)CC(=O)O)cc2)cc1` [23-(c), 3,3′-(((ethane-1,2-diylbis(oxy))bis(ethane-2,1-diyl))bis((N-(4-((4-guanidinobenzoyl)oxy)benzyl)sulfamoyl)azanediyl))dipentanedioic acid], in data set [1], the inhibition at 0.01 µM was at least 50% and the inhibition at 0.1 µM was at least 50%. In data set [2], the inhibition at 0.001 µM was at least 50%, the inhibition at 0.01 µM was at least 50% and the inhibition at 0.1 µM was at least 50%.

In the case of `N=C(N)Nc1ccc2c(c1)CCCOc1c(cccc1C(=O)N(CCOCCOCCN(C(=O)c1cccc3c1OCCCc1cc(NC(=N)N)ccc1C(=O)O3)[C@@H](CC(=O)O)C(=O)O)[C@@H](CC(=O)O)C(=O)O)OC2=O` [20-(d), (2S,13S)-3,12-bis(10-guanidino-13-oxo-6,7,8,13-tetrahydrodibenzo[b,f][1,4]dioxecin-4-carbonyl)-6,9-dioxa-3,12-diazatetradecane-1,2,13,14-tetracarboxylic acid], in the data set on DIO mouse, the inhibition in vivo at 50 mg/kg was at least 4%.

Broadly, the AUC is concentration integrated over time. The low end stands for less exposure, the high end for more exposure. In data set [3], `Cl.N=C(N)Nc1ccc(C(=O)Oc2ccc(CNS(=O)(=O)N(CCOCCOCCOCCN([C@@H](CC(=O)O)C(=O)O)S(=O)(=O)NCc3ccc(OC(=O)c4ccc(NC(=N)N)cc4)cc3)[C@@H](CC(=O)O)C(=O)O)cc2)cc1` [3-(c)] had an AUC of at most 100 ng·h/mL.

`N=C(N)Nc1ccc(C(=O)Oc2ccc(COC(=O)N[C@@H](CC(=O)O)C(=O)O)cc2)cc1` [Reference Example 31-(b), (5)-2-((((4-((4-guanidinobenzoyl)oxy)benzyl)oxy)carbonyl)amino)succinic acid trifluoroacetate]: the inhibition at 0.1 µM in data set [1] and in data set [2] was at least 50% in each case.

As for `N=C(N)Nc1ccc(C(=O)Oc2cccc(C(=O)N[C@@H](CC(=O)O)C(=O)O)c2)cc1` [Reference Example 87-(d), (S)-2-(3-((4-guanidinobenzoyl)oxy)benzamide)succinic acid], the inhibition at 0.1 µM in data set [1] and in data set [2] was at least 50% throughout.

With `Cl.N=C(N)Nc1ccc(C(=O)Oc2ccc(CNS(=O)(=O)N(CCOCCOCCOCCN([C@@H](CC(=O)O)C(=O)O)S(=O)(=O)NCc3ccc(OC(=O)c4ccc(NC(=N)N)cc4)cc3)[C@@H](CC(=O)O)C(=O)O)cc2)cc1` [3-(c), 2S,16S)-3,15-bis(N-(4-(4-guanidinobenzoyl)oxy)benzyl)sulfamoyl)-6,9,12-trioxa-3,15-diazaheptadecane-1,2,16,17-tetracarboxylic acid hydrochloride], the inhibition in vivo at 100 mg/kg in the data set on DIO mouse (oral 100 mg/kg once daily for 2 weeks) was at least 4%.

As for `N=C(N)Nc1ccc(C(=O)Oc2ccc(COC(=O)N(Cc3cccc(C(=O)O)c3)[C@@H](CC(=O)O)C(=O)O)cc2)cc1` [Reference Example 49-(b), (S)-2-(3-carboxybenzyl) (((4-((4-guanidinobenzoyl)oxy)benzyl)oxy)carbonyl)amino)succinic acid trifluoroacetate], the inhibition at 0.1 µM in data set [1] and in data set [2] was at least 50% throughout.
